In patent US4994376A, “Detection of bacteroides gingivalis” (priority 1987, dated 1991):
Like-named read-outs stand apart in the source and are kept apart here. Peptide text beside a SMILES is read from it. * marks the point of attachment. βNA = c1ccc2cc(N*)ccc2c1

Columns and labels:
Type in all cases: biochemical
A. equuli = test: Aminopeptidase activity on β-naphthylamide substrates; conditions: strain ATCC 19392; β-naphthylamine liberated after 60 minutes, 37° C.
Procedure, shortened: (§1)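 Enzyme plus N-CBz-glycyl-glycyl-L-arginine-β-naphthylamide incubated 1 h at 37° C. Fast Garnet GBC (0.5 mg/ml) in 1M acetate pH 4.2 with 10% Tween 20 added; stood 15 min at RT. A525 read; activity given as nmol β-naphthylamine liberated in 60 min.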

Lactobacillus casei = test: as above; conditions: β-naphthylamine liberated after 60 minutes, 37° C.
Procedure, shortened: as §1

Haemophilus aphrophilus = test: as above; conditions: β-naphthylamine liberated after 60 minutes, 37° C.
Procedure, shortened: as §1

A. suis = test: as above; conditions: strain ATCC 15557; β-naphthylamine liberated after 60 minutes, 37° C.
Procedure, shortened: as §1

F. periodonticum = test: as above; conditions: strain EK1-15; β-naphthylamine liberated after 60 minutes, 37° C.
Procedure, shortened: as §1

S. salivarius = test: as above; conditions: β-naphthylamine liberated after 60 minutes, 37° C.
Procedure, shortened: as §1

L. fermentum = test: as above; conditions: strain ATCC 11581; β-naphthylamine liberated after 60 minutes, 37° C.
Procedure, shortened: as §1

B. intermedius = test: as above; conditions: strain ATCC 25611; β-naphthylamine liberated after 60 minutes, 37° C.
Procedure, shortened: (§2)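 Hydrolysis of N-CBz-glycyl-glycyl-L-arginine-β-naphthylamide over 1 h at 37 °C, then colour developed with Fast Garnet GBC (0.5 mg/ml) in 1M acetate pH 4.2 with 10% Tween 20 for 15 min at room temperature. Absorbance read at 525 nm against an enzyme-free control; activity given as nmol β-naphthylamine released in 60 min.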

B. melaninogenicus = test: as above; conditions: strain ATCC 25845; β-naphthylamine liberated after 60 minutes, 37° C.
Procedure, shortened: as §2

B. denticola = test: as above; conditions: strain ATCC 33185; β-naphthylamine liberated after 60 minutes, 37° C.
Procedure, shortened: as §2

C. sputigena = test: as above; conditions: strain ATCC 33123; β-naphthylamine liberated after 60 minutes, 37° C.
Procedure, shortened: as §2

B. corporis = test: as above; conditions: strain ATCC 33547; β-naphthylamine liberated after 60 minutes, 37° C.
Procedure, shortened: as §2

Fusobacterium nucleatum = conditions: β-naphthylamine liberated after 60 minutes, 37° C.
Procedure, shortened: as §1

Actinomyces israeli = conditions: β-naphthylamine liberated after 60 minutes, 37° C.
Procedure, shortened: as §1

A. seminis = conditions: strain ATCC 15768; β-naphthylamine liberated after 60 minutes, 37° C.
Procedure, shortened: as §1

Veillonella sp. = conditions: strain SE1M2; β-naphthylamine liberated after 60 minutes, 37° C.
Procedure, shortened: as §1

"Anaerobic vibrio" = conditions: strain SN2T2; β-naphthylamine liberated after 60 minutes, 37° C.
Procedure, shortened: as §1

V. parvula = conditions: strain ATCC 10790; β-naphthylamine liberated after 60 minutes, 37° C.
Procedure, shortened: as §1

S. sanguis = conditions: β-naphthylamine liberated after 60 minutes, 37° C.
Procedure, shortened: as §1

Eikenella corrodens = conditions: strain BP1-6; β-naphthylamine liberated after 60 minutes, 37° C.
Procedure, shortened: as §1

A. viscosus = conditions: β-naphthylamine liberated after 60 minutes, 37° C.
Procedure, shortened: as §1

S. mutans = conditions: strain ATCC 25175; β-naphthylamine liberated after 60 minutes, 37° C.
Procedure, shortened: as §1

Campylobacter sputorum = conditions: strain Ba1-21; β-naphthylamine liberated after 60 minutes, 37° C.
Procedure, shortened: as §1

[1] = tested on: Actinobacillus actinomycetemcomitans; conditions: β-naphthylamine liberated after 60 minutes, 37° C.
Procedure, shortened: as §1

Streptococcus mitis = conditions: β-naphthylamine liberated after 60 minutes, 37° C.
Procedure, shortened: as §1

B. levii = conditions: β-naphthylamine liberated after 60 minutes, 37° C.
Procedure, shortened: as §2

B. loescheii = conditions: β-naphthylamine liberated after 60 minutes, 37° C.
Procedure, shortened: as §2

Bacteroides gingivalis = conditions: β-naphthylamine liberated after 60 minutes, 37° C.
Procedure, shortened: as §2

Structure (SMILES): CC(C)C[C@H](NC(=O)[C@@H]1CCCN1C(=O)CN)C(=O)Nc1ccc2ccccc2c1 [Gly-Pro-Leu] (H-Gly-Pro-Leu-βNA)
- Aminopeptidase activity (A. equuli): 0 nmol
- Aminopeptidase activity (Lactobacillus casei; strain ATCC 7469): 0 nmol
- Aminopeptidase activity (Lactobacillus casei; strain ATCC 11578): 0 nmol
- Aminopeptidase activity (Lactobacillus casei; strain ATCC 11582): 0 nmol
- Aminopeptidase activity (Haemophilus aphrophilus; strain ATCC 13252): 0 nmol
- Aminopeptidase activity (Haemophilus aphrophilus; strain ATCC 19415): 0 nmol
- Aminopeptidase activity (Haemophilus aphrophilus; strain NCTC 5908): 0 nmol
- Aminopeptidase activity (A. suis): 0 nmol
- Aminopeptidase activity (F. periodonticum): 1 nmol
- Aminopeptidase activity (S. salivarius; strain ATCC 9759): 2 nmol
- Aminopeptidase activity (S. salivarius; strain ATCC 25975): 0 nmol
- Aminopeptidase activity (L. fermentum): 0 nmol
- Aminopeptidase activity (B. intermedius): 0 nmol
- Aminopeptidase activity (B. melaninogenicus): 2 nmol
- Aminopeptidase activity (B. denticola): 1 nmol
- Aminopeptidase activity (C. sputigena): 28 nmol
- Aminopeptidase activity (B. corporis): 2 nmol
- Aminopeptidase activity (Fusobacterium nucleatum; strain 2): 0 nmol
- Aminopeptidase activity (Fusobacterium nucleatum; strain ATCC 25586): 2 nmol
- Aminopeptidase activity (Fusobacterium nucleatum; strain D31A-24): 2 nmol
- Aminopeptidase activity (Actinomyces israeli; strain ATCC 12103): 0 nmol
- Aminopeptidase activity (Actinomyces israeli; strain DK2-3): 0 nmol
- Aminopeptidase activity (A. seminis): 0 nmol
- Aminopeptidase activity (Veillonella sp.): 0 nmol
- Aminopeptidase activity ("Anaerobic vibrio"): 0 nmol
- Aminopeptidase activity (V. parvula): 0 nmol
- Aminopeptidase activity (S. sanguis; strain ATCC 10556): 11 nmol
- Aminopeptidase activity (S. sanguis; strain ATCC 10557): 6 nmol
- Aminopeptidase activity (Eikenella corrodens): 0 nmol
- Aminopeptidase activity (A. viscosus; strain ATCC 19246): 0 nmol
- Aminopeptidase activity (A. viscosus; strain T14V): 2 nmol
- Aminopeptidase activity (S. mutans): 0 nmol
- Aminopeptidase activity (Campylobacter sputorum): 2 nmol
- Aminopeptidase activity ([1]; strain 67): 1 nmol
- Aminopeptidase activity ([1]; strain 75): 1 nmol
- Aminopeptidase activity ([1]; strain ATCC 29523): 0 nmol
- Aminopeptidase activity ([1]; strain NCTC 9709): 0 nmol
- Aminopeptidase activity ([1]; strain Y4): 0 nmol
- Aminopeptidase activity (Streptococcus mitis; strain ATCC 9815): 27 nmol
- Aminopeptidase activity (Streptococcus mitis; strain ATCC 15909): 7 nmol
- Aminopeptidase activity (Streptococcus mitis; strain ATCC 15912): 11 nmol
- Aminopeptidase activity (B. levii; strain 18-1-5): 1 nmol
- Aminopeptidase activity (B. levii; strain 18-1-8): 0 nmol
- Aminopeptidase activity (B. loescheii; strain ATCC 15930): 1 nmol
- Aminopeptidase activity (B. loescheii; strain VPI4196): 1 nmol
- Aminopeptidase activity (Bacteroides gingivalis; strain 9-14K-1): 0 nmol
- Aminopeptidase activity (Bacteroides gingivalis; strain 11-1-2): 2 nmol
- Aminopeptidase activity (Bacteroides gingivalis; strain 381): 0 nmol
- Aminopeptidase activity (Bacteroides gingivalis; strain 1021): 0 nmol
- Aminopeptidase activity (Bacteroides gingivalis; strain ATCC 33277): 0 nmol
- Aminopeptidase activity (Bacteroides gingivalis; strain FAYE 19m-1): 0 nmol
